Test results taken from US4216324A, “1-Difluoromethyl-6,7-methylenedioxy-1,4-dihyd ro-4-oxo-3-quinolinecarboxylic acid” (E. I. Du Pont de Nemours and Company, priority 1978, dated 1980).
Where two headings read alike, the source gives them in different places.

Key:
Aero. cloacae = assay: In vitro minimum inhibitory concentration (MIC), tube dilution test; format: cell-based; conditions: Enterobacter cloacae; Aero. cloacae (39A); brain-heart infusion broth, 20hour incubation at 37° C.; read-out: Minimal Inhibitory Test Conens. (MIC)
Method: (§1) A. In vitro: mimimum inhibitory concentration (MIC)
(§2) The compound was tested in a standard bacteriological tube dilution test for MIC for a variety of bacteria. Stock cultures of the bacteria listed in Table 1 were grown in bacterial culture media at 37° C. overnight and diluted in culture tubes to a previously determined concentration proper for the test. The compound was added to result in final concentrations of 10, 2, 0.4 and 0.08 μg/ml. These were incubated for 18 hours at 37° C. and then observed to determine if growth of bacteria had occurred. The lowest concentration of the compound that inhibited bacterial growth in the MIC.
(§3) *brain-heart infusion broth, 20hour incubation at 37° C.

Bac. subtilis = assay: as above; format: cell-based; conditions: Bacillus subtilis; Bac. subtilis (07A); brain-heart infusion broth, 20hour incubation at 37° C.; read-out: Minimal Inhibitory Test Conens. (MIC)
Method: as §1, §2, §3

E. coli = assay: as above; format: cell-based; conditions: Escherichia coli, 20 h, brain-heart infusion broth, 20hour incubation at 37° C., read-out: Minimal Inhibitory Test Conens. (MIC)
Method: as §1, §2, §3

Kleb. aerobacter = assay: as above; format: cell-based; conditions: Kleb. aerobacter (20F); brain-heart infusion broth, 20hour incubation at 37° C.; read-out: Minimal Inhibitory Test Conens. (MIC)
Method: as §1, §2, §3

Proteus vulgaris = assay: as above; format: cell-based; conditions: Proteus vulgaris (14P); brain-heart infusion broth, 20hour incubation at 37° C.; read-out: Minimal Inhibitory Test Conens. (MIC)
Method: as §1, §2, §3

Sal. choleraesuis = assay: as above; format: cell-based; conditions: Salmonella enterica, 20 h, read-out: Minimal Inhibitory Test Conens. (MIC)
Method: as §1, §2, §3

Sal. gallinarum = assay: as above; format: cell-based; conditions: Salmonella enterica, 20 h, brain-heart infusion broth, 20hour incubation at 37° C., read-out: Minimal Inhibitory Test Conens. (MIC)
Method: as §1, §2, §3

Sal. typhimurium = assay: as above; format: cell-based; conditions: Salmonella enterica, 20 h, brain-heart infusion broth, 20hour incubation at 37° C., read-out: Minimal Inhibitory Test Conens. (MIC)
Method: as §1, §2, §3

Sal. typhi = assay: as above; format: cell-based; conditions: Salmonella enterica, TYPHI, 20 h, brain-heart infusion broth, 20hour incubation at 37° C.
Method: as §1, §2, §3

Ser. marcescens = assay: as above; format: cell-based; conditions: Serratia marcescens; Ser. marcescens (22); brain-heart infusion broth, 20hour incubation at 37° C.; read-out: Minimal Inhibitory Test Conens. (MIC)
Method: as §1, §2, §3

Shiq. dysenteriae = assay: as above; format: cell-based; conditions: 20 h, read-out: Minimal Inhibitory Test Conens. (MIC)
Method: as §1, §2, §3

Staph. aureus = assay: as above; format: cell-based; conditions: Staphylococcus aureus; Staph. aureus (08F); brain-heart infusion broth, 20hour incubation at 37° C.; read-out: Minimal Inhibitory Test Conens. (MIC)
Method: as §1, §2, §3

Strep. pyogenes = assay: as above; format: cell-based; conditions: Streptococcus pyogenes; Strep. pyogenes (10V); brain-heart infusion broth, 20hour incubation at 37° C.; read-out: Minimal Inhibitory Test Conens. (MIC)
Method: as §1, §2, §3

[1] = General pharmacology screen in mice; conditions: mouse, in vivo, po; for TD50: doses given in mg./kg
Method: 17- to 24-hour fasted female white mice, 16-20 g. each, or rats, 70-90 g. each were dosed orally with test drug (or standard) at 0, 4, 12, 36, 108 or 324 mg./kg.
Ataxia--The mouse or rat was placed upright on the bench top facing away from the observer. Motor incoordination manifested by abnormal gait or lack of precision during purposive movements constituted ataxia.
Vertical Bar--The mouse or rat was swung by the tail with head pointing down to a 0.5" diameter (1" diameter for rats), 30.5 cm long vertical rod covered with adhesive tape. Inability to grip the rod with the front paws, sliding or failure to move after being prodded constituted vertical bar loss.
Body Temperature--The rectal temperatures of the mice and rats were taken using a KC-1 thermocouple probe.
Excitement and Irritability--Increased spontaneous motor activity, running and jumping prior to handling were recorded as excitement. Upon handling, jumping, jerking, biting and squeaking were recorded as irritability.
Anorexia--At the end of the 0.5 hour testing period, each mouse was transferred to an individual, clear, Lucite® compartment (13.3 cm×12.7 cm×12.7 cm) with a 0.64 cm×0.64 cm wire mesh floor. Inside each compartment there was a section of a black Lucite® bar [13 cm×1.2 cm×1.2 cm) with ten spot depressions (0.8 cm diameter) each containing 0.05 ml. of 50% sweetened condensed milk. 30 Minutes later the number of milk spots consumed was counted. 5 Mice per drug dose can drink a maximum of 50 spots (2.5 ml. of milk). 15 or fewer spots consumed by 5 mice constituted anorexia.

[2] = General pharmacology screen in rats; conditions: in vivo, rat, doses given in mg./kg; for TD50: po
Pseud. aeruginosa = assay: In vitro minimum inhibitory concentration (MIC), tube dilution test; format: cell-based; conditions: Pseudomonas aeruginosa, 20 h, brain-heart infusion broth, 20hour incubation at 37° C., read-out: Minimal Inhibitory Test Conens. (MIC)

CCn1cc(C(=O)O)c(=O)c2ccc(C)nc21 [Nalidixic Acid, nalidixic acid]
> 450 mg/kg: LD50 at 24 h [1] | TD50 ([1]; ED50 Excitation) | TD50 ([1]; ED50 Hypertherm., rectal temperature) | TD50 ([1]; ED50 Irritability)
> 324 mg/kg: LD50 at 24 h ([2]; oral, read-out: ED50 24-Hour Mort.) | TD50 ([2]; read-out: ED50 Excitation) | TD50 ([2]; read-out: ED50 Irritability) | TD50 ([2]; rectal temperature, read-out: ED50 Hypertherm.) | TD50 ([2]; rectal temperature, read-out: ED50 Hypotherm.)
187 mg/kg: TD50 ([1]; ED50 Hypotherm., rectal temperature) | TD50 ([1]; ED50 Vert. Bar, vertical bar loss) | TD50 ([2]; read-out: ED50 Ataxia)
180 mg/kg: TD50 ([1]; ED50 Anoroxia, 15 or fewer milk spots consumed by 5 mice)
150 mg/kg: TD50 ([1]; ED50 Ataxia)
2 mg/L: MIC (Aero. cloacae) | MIC (E. coli; E. coli (06-2F)) | MIC (E. coli; E. coli (06-2M)) | MIC (E. coli; E. coli (06J)) | MIC (E. coli; E. coli (06V)) | MIC (Sal. choleraesuis) | MIC (Sal. typhimurium; Sal. typhimurium (03A)) | MIC (Sal. typhimurium; Sal. typhimurium (03C)) | MIC (Sal. typhimurium; Sal. typhimurium (03K)) | MIC (Sal. typhi; read-out: Minimal Inhibitory Test Conens. (MIC), Sal. typhi (02B)) | MIC (Ser. marcescens) | MIC (Staph. aureus)
> 10 mg/L: MIC (E. coli; E. coli (06-2B)) | MIC (E. coli; E. coli (06-2L)) | MIC (E. coli; E. coli (06C)) | MIC (E. coli; E. coli (06I)) | MIC (Kleb. aerobacter) | MIC (Proteus vulgaris) | MIC (Sal. gallinarum; Sal. gallinarum (04C)) | MIC (Shiq. dysenteriae) | MIC (Pseud. aeruginosa; Pseud. aeruginosa (11B)) | MIC (Pseud. aeruginosa; Pseud. aeruginosa (11C)) | MIC (Pseud. aeruginosa; Pseud. aeruginosa (11D)) | MIC (Pseud. aeruginosa; Pseud. aeruginosa (11G)) | MIC (Pseud. aeruginosa; Pseud. aeruginosa (11I)) | MIC (Pseud. aeruginosa; Pseud. aeruginosa (11J))
360 mg/kg: TD50 ([2]; vertical bar loss, read-out: ED50 Vert. Bar)
10 mg/L: MIC (E. coli; E. coli (06K)) | MIC (E. coli; E. coli (06L)) | MIC (E. coli; E. coli (06M)) | MIC (E. coli; E. coli (06S)) | MIC (E. coli; E. coli (06X)) | MIC (E. coli; E.coli (06-2D)) | MIC (Sal. gallinarum; Sal. gallinarum (04D)) | MIC (Sal. typhi; read-out: Minimal Inhibitory Test Conens. (MIC), Sal. typhi (02A)) | MIC (Strep. pyogenes)
0.4 mg/L: MIC (Bac. subtilis)
